Results on one compound are retold here after publication PMC9553116 (The Journal of Pharmacology and Experimental Therapeutics, 2022).

The target of this test is T1, MFN2 (FRET-MFN2) (Homo sapiens, UniProt O95140).
T1 sequence (O95140 1-757): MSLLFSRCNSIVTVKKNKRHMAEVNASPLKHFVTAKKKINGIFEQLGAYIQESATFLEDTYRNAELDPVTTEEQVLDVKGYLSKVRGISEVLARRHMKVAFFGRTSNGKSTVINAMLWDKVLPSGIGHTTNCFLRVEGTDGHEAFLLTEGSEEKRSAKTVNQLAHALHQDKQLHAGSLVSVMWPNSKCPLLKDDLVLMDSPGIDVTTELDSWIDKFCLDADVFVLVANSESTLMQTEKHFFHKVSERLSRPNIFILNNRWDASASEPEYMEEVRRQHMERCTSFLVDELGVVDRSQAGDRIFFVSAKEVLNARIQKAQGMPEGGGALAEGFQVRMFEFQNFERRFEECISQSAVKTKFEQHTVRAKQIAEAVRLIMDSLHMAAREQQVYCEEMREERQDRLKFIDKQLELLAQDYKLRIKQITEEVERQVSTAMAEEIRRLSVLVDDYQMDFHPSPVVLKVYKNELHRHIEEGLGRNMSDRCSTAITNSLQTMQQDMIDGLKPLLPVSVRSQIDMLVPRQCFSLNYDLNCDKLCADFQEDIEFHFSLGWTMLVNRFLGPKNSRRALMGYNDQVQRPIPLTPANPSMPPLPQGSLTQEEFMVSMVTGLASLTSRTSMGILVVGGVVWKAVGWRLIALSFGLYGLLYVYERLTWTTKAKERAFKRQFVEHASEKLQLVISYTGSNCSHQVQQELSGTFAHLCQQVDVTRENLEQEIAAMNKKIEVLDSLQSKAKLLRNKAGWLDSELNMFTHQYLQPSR
Kind of test: Cerulean/Venus FRET of MFN2 conformation, isolated mitochondria. The test is classed as biochemical. The conditions noted are these: 1 uM compound, 4 h, room temperature, pH 7.4; allosteric.

With `O=C(CCCCCc1ccccc1)N[C@H]1CC[C@H](O)CC1` [trans-MiM111, N-(trans-4-Hydroxycyclohexyl)-6-phenylhexanamide], the FRET result is “trans-MiM111 and CPR1-B promoted a relaxed WT MFN2 conformation”.
